Source: article PMC7286788 (ACS infectious diseases, 2019)
Read-outs that look alike come from different tables or passages of the source. Marks after values point to notes of the source that are not given here. Starred links: 1 amine or outer side, 2 acyl side, 3 side chain; linkers in the order of their positions; H or OH if unused. Positions of bridges follow the written chain, without caps; N, C: chain ends. Non-standard residues stand in square brackets, D forms with d. Residues, ends and D or L forms follow the SMILES beside them. ξ: configuration not given here. *: point of attachment. X3 = O=C(C(N[*:1])c1ccc(OC2OC(CO)C(O)C(O)C2OC2OC(CO)C(O)C(O)C2O)cc1)[*:2]; ξPhg(3-Cl-4-OH) = NC(C(=O)O)c1ccc(O)c(Cl)c1; X2 = NC(=O)C(O[*:3])C(N[*:1])C(=O)[*:2]; Hpg = N[CH](C(=O)O)c1ccc(O)cc1; Orn = NCCC[CH](N)C(=O)O; X1 = CC(C)CC=CC=CC(=O)*

Key:
[1] = biological target: T1, MurG (Mycolicibacterium smegmatis, UniProt A0R016); assay: MurG kinetic parameters and mode of inhibition, enzyme source not stated; assay type: biochemical
T1 sequence (A0R016 1-385): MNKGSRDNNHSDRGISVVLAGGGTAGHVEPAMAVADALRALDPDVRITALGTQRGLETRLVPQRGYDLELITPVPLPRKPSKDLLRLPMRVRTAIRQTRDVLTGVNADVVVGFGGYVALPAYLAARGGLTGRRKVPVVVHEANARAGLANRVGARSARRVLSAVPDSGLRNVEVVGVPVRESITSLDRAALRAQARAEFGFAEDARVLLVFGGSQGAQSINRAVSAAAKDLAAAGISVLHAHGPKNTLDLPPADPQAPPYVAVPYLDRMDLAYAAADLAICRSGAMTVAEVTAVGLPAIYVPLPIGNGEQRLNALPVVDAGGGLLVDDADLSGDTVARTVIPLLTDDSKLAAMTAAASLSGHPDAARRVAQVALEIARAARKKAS

[2] = biological target: T2, HyMurG (Hydrogenivirga sp. 128-5-R1-1, UniProt A8US35); assay: HPLC-based MurG assay, dose-response, HyMurG; assay type: biochemical; conditions: read-out: IC50 HyMurG; HPLC-based method; average of two-three experiments
[3] = biological target: T2, HyMurG; assay: Kinetic studies with HyMurG; assay type: biochemical
[4] = biological target: MsmegMraY (Mycolicibacterium smegmatis, UniProt A0R019); assay: biochemical; assay type: biochemical, Mycobacterium smegmatis
[5] = biological target: T3, MsmegMurG (Mycolicibacterium smegmatis, UniProt A0R016); assay: biochemical; set-up: species or system Mycobacterium smegmatis
[6] = cited from earlier work
[7] = system: M. tuberculosis (H37Rv); assay: MIC determination, M. tuberculosis; assay type: cell-based, Mycobacterium tuberculosis; conditions: 7H9 containing OADC; 14 days
[8] = system: Vero cell
[9] = system: M. smegmatis (ATCC607); assay: MIC determination, resazurin, M. smegmatis; assay type: cell-based, Mycobacterium smegmatis; conditions: 7H9 with 0.5% tween 80, 3 days at 37 °C
[10] = biological target: T4, MurG of M. smegmatis (Mycolicibacterium smegmatis, UniProt A0R016); assay: Kinetic studies of MurG of M. smegmatis; assay type: biochemical, Mycobacterium smegmatis; conditions: P-60 of M. smegmatis; donor 8
T4 sequence (A0R016 1-385): T1 sequence (A0R016 1-385)

[11] = Cytotoxicity against Vero cells; conditions: African green monkey
[12] = biological target: T3, MsmegMurG; assay: biochemical; set-up: species or system Mycobacterium smegmatis; conditions: for inhibition at 10 µM / inhibition at 50 µM / inhibition at 100 µM: read-out: (MsmegMurG) inhibition (%)
[13] = biological target: T2, HyMurG; assay: UV-Vis-based MurG assay; assay type: biochemical; conditions: for IC50: read-out: IC50 against HyMurG via UV-Vis spectrometry, dose-response curves; for inhibition at 10 µM / inhibition at 50 µM / inhibition at 100 µM: read-out: HthermMurG inhibition (%); for Inhibition of MurG function / lipid II formation: 50–100 μM
[14] = in vitro; conditions: African green monkey
[15] = system: M. smegmatis (ATCC607) and M. tuberculosis (H37Rv); assay: Antimycobacterial activity, text summary for both species; assay type: cell-based, Mycobacterium spp.; conditions: 50 μg/mL
[16] = biological target: MraY/MurX (Mycolicibacterium smegmatis, UniProt A0R019); assay: Substrate tolerance of MurX/MraY, P-60 of M. smegmatis; assay type: biochemical, Mycobacterium smegmatis; conditions: P-60 of wild-type M. smegmatis (ATCC607)
[17] = system: HyMraY; assay: Kinetic studies with HyMraY; assay type: biochemical, Hydrogenivirga sp.
[18] = biological target: MurG, P-60 (M. smegmatis) (Mycolicibacterium smegmatis, UniProt A0R016); assay: Competition reaction of UDP-GlcN-C6-FITC; assay type: biochemical, Mycobacterium smegmatis
[19] = substrate: CC(=O)N[C@H]1[C@@H](OP(=O)(O)OP(=O)(O)OC[C@H]2O[C@@H](n3ccc(=O)[nH]c3=O)[C@H](O)[C@@H]2O)O[C@H](CO)[C@@H](O)[C@@H]1O; assay: Kinetic studies of MurG of M. smegmatis; assay type: biochemical, Mycobacterium smegmatis; conditions: other: apparent Km
[20] = read-out: IC50 MsmegMraY, HPLC-based method, average of two-three experiments
[21] = read-out: IC50 MsmegMurG, HPLC-based method, average of two-three experiments

T2 sequence (A8US35 1-350): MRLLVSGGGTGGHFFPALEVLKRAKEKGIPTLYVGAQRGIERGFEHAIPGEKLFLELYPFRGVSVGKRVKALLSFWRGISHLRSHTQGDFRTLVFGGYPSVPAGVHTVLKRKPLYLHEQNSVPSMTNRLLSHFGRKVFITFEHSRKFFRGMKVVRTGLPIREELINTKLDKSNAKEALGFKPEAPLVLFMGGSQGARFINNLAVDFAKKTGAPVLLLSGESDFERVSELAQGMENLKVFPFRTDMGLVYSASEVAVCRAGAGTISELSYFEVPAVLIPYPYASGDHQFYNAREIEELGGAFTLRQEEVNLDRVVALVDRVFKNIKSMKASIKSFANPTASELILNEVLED
Chain of MsmegMraY (A0R019 whole entry): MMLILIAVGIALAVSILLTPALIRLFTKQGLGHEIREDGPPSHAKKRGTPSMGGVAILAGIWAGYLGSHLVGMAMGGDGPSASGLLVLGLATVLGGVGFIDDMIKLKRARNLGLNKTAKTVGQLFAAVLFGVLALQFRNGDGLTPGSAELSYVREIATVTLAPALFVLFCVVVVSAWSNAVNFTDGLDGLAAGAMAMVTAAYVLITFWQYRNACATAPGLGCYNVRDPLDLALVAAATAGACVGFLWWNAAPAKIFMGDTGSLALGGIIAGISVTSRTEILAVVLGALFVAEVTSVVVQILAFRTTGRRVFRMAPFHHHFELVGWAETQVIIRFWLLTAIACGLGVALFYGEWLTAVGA
Chain of MraY/MurX (A0R019 whole entry): as above

UDP-Glucosamine-C6-FITC [Compound 8]
Km ([1]; read-out: Km for UDP-GlcN-C6-FITC probe (8), 2e-C55 75 μM): 54 µM

ristocetin A
IC50 [2]: 0.96 µM | Mode of HyMurG inhibition ([3]; ristocetin A 5 μM, Michaelis-Menten plots): competes for the UDP-GlcNAc binding-site | Mode of MurX inhibition [4]: non-competitive inhibition against Park’s nucleotide and prenyl-P | IC50 [4, 20]: 0.81 µM | IC50 [5, 21]: 1.4 µM | Binding affinity, times less than that of vancomycin [6]: about 3.0 times | M. tuberculosis (H37Rv) MIC [7]: 0.5 µg/mL | Vero cell cytotoxicity IC50 [8]: >100 µg/mL | M. smegmatis (ATCC607) MIC [9]: <0.39 µg/mL

C55-lipid II-N^ε-C6-dansyl-FITC [Compound 9-C55]
Vmax for 9-C55 transformation ([3]; HyMurG, donor 8): 0.67 µM/min | Vmax for 9-C55 transformation [10]: 0.56 µM/min

CC(C)CC=CC=CC(=O)NC(CC(N)=O)C(=O)NC1C(=O)NC(c2ccc(O)cc2)C(=O)NC(CCCN)C(=O)NC(C(C)O)C(=O)NC(c2ccc(O)cc2)C(=O)NC(c2ccc(O)cc2)C(=O)NC(C(C)O)C(=O)NC(Cc2ccccc2)C(=O)NC(CCCN)C(=O)NC(c2ccc(OC3OC(CO)C(O)C(O)C3OC3OC(CO)C(O)C(O)C3O)cc2)C(=O)NC(C(C)O)C(=O)NC(c2ccc(O)cc2)C(=O)NCC(=O)NC(CC(C)C)C(=O)NC(C)C(=O)NC(c2ccc(O)c(Cl)c2)C(=O)OC1C(N)=O (stereo not drawn) [Ramoplanin A2, ramoplanin A2] (X1-N[X2][Hpg][Orn]T[Hpg][Hpg]TF[Orn][X3]T[Hpg]GLA[ξPhg(3-Cl-4-OH)]; ester 2-C; configuration not given here)
IC50 [2]: 22.4 µM | IC50 [4]: > 100 µM | IC50 [11]: > 100 µg/mL | inhibition at 10 µM [12]: 0% | inhibition at 50 µM [12]: 100% | inhibition at 100 µM [12]: 100% | IC50 [13]: 22.4 µM

CN[C@H](CC(C)C)C(=O)N[C@H]1C(=O)N[C@@H](CC(N)=O)C(=O)N[C@H]2C(=O)N[C@H]3C(=O)N[C@H](C(=O)N[C@H](C(=O)O)c4cc(O)cc(O)c4-c4cc3ccc4O)[C@H](O)c3ccc(c(Cl)c3)Oc3cc2cc(c3O[C@@H]2O[C@H](CO)[C@@H](O)[C@H](O)[C@H]2O[C@H]2C[C@](C)(N)[C@H](O)[C@H](C)O2)Oc2ccc(cc2Cl)[C@H]1O [Vancomycin, vancomycin]
IC50 [11]: > 100 µg/mL | inhibition at 10 µM [12]: 60% | inhibition at 50 µM [12]: 67% | inhibition at 100 µM [12]: 58%

CC[C@@H](CO)NCCN[C@@H](CC)CO [Ethambutol]
IC50 [14]: > 100 µg/mL

C[C@@H]([C@H](N)C(=O)N[C@H](C(=O)O)[C@H]1O[C@@H](n2ccc(=O)[nH]c2=O)[C@H](O)[C@@H]1O)[C@H](O)c1ccc(O)cn1 [Nikkomycin Z, nikkomycin Z]
IC50 [2]: 8.7 µM | IC50 [4]: > 100 µM | IC50 [5]: 9.5 µM | Growth inhibition of M. smegmatis and M. tuberculosis [15]: did not inhibit growth | Mode of MurG inhibition [1]: competitive inhibitory activity | IC50 [12]: 9.5 µM | inhibition at 10 µM [12]: 35% | inhibition at 50 µM [12]: 45% | inhibition at 100 µM [12]: 93% | inhibition at 10 µM [13]: 33% | inhibition at 50 µM [13]: 50% | inhibition at 100 µM [13]: 95% | IC50 [13]: 8.7 µM | IC50 [14]: > 100 µg/mL

CO[C@H]1[C@@H](OC)[C@H](n2ccc(=O)[nH]c2=O)O[C@@H]1[C@@H](O[C@H]1OC(C(=O)N[C@H]2CCCCNC2=O)=C[C@H](O)[C@@H]1O)C(N)=O [O-Methylcapuramycin, O-methylcapuramycin]
IC50 [2]: > 100 µM | IC50 [4, 20]: > 100 µM | IC50 [5, 21]: > 100 µM | Inhibition of MurG function / lipid II formation [13]: did not inhibit

C/C(=C/COP(=O)(O)O)CCCC(C)CCCC(C)CCCC(C)C (stereo not drawn) [(2Z)-phytyl phosphate]
Formation of lipid I-N^ε-derivatives [16]: did not provide the corresponding lipid I derivatives

O=C(NC(=O)c1ccccc1Cl)Nc1ccc(OC(F)(F)F)cc1 [Triflumuron, triflumuron]
IC50 [2]: > 100 µM | IC50 [4]: > 100 µM | IC50 [5]: > 100 µM | inhibition at 10 µM [12]: 0% | inhibition at 50 µM [12]: 0% | inhibition at 100 µM [12]: 0% | Inhibition of MurG function / lipid II formation [13]: did not inhibit | inhibition at 10 µM [13]: 0% | inhibition at 50 µM [13]: 0% | inhibition at 100 µM [13]: 0%

NNC(=O)c1ccncc1 [INH]
M. tuberculosis (H37Rv) MIC [7]: 0.16 µg/mL | Vero cell cytotoxicity IC50 [8]: >100 µg/mL | M. smegmatis (ATCC607) MIC [9]: 0.78 µg/mL

Park’s nucleotide-N^ε-C6-dansylthiourea [Compound 1e]
kcat of HyMraY for 1e [17]: 0.38 s⁻¹

CC(=O)N[C@H]1[C@@H](OP(=O)(O)OP(=O)(O)OC[C@H]2O[C@@H](n3ccc(=O)[nH]c3=O)[C@H](O)[C@@H]2O)O[C@H](CO)[C@@H](O)[C@@H]1O [UDP-GlcNAc]
IC50 [18]: 8.4 µM | UDP-GlcNAc required for 100%-disappearance of 9-C55 ([18]; 8 at 375 μM): > 200 µM

C=C(C/C=C(\C)CCC=C(C)C)CCC(C)(C)/C=C/CC/C(C)=C\CO[C@H](COP(=O)(O)O[C@H]1O[C@H](C(N)=O)[C@@](C)(O)[C@H](OC(N)=O)[C@H]1O[C@@H]1O[C@H](CO[C@@H]2O[C@H](CO)[C@@H](O)[C@H](O)[C@H]2O)[C@@H](O[C@@H]2O[C@H](C)[C@@H](O[C@@H]3O[C@H](C(=O)NC4=C(O)CCC4=O)[C@H](O)[C@H](O)[C@H]3O)[C@H](O)[C@H]2NC(C)=O)[C@H](O)[C@H]1NC(C)=O)C(=O)O [Moenomycin A, moenomycin A]
IC50 [4]: > 100 µM | IC50 [5]: > 100 µM | inhibition at 10 µM [12]: 0% | inhibition at 50 µM [12]: 0% | inhibition at 100 µM [12]: 15% | Inhibition of MurG function / lipid II formation [13]: did not inhibit | inhibition at 10 µM [13]: 0% | inhibition at 50 µM [13]: 0% | inhibition at 100 µM [13]: 12%

CO[C@H]1[C@@H](O)[C@H](n2ccc(=O)[nH]c2=O)O[C@@H]1[C@@H](O[C@H]1OC(C(=O)N[C@H]2CCCCNC2=O)=C[C@H](O)[C@@H]1O)C(N)=O [Capuramycin, capuramycin]
IC50 [4]: 0.13 µM | IC50 [5]: > 100 µM | inhibition at 10 µM [12]: 0% | inhibition at 50 µM [12]: 0% | inhibition at 100 µM [12]: 0% | Inhibition of MurG function / lipid II formation [13]: did not inhibit | inhibition at 10 µM [13]: 0% | inhibition at 50 µM [13]: 0% | inhibition at 100 µM [13]: 0%

CO[C@H]1/C=C/O[C@@]2(C)Oc3c(C)c(O)c4c(O)c(c(/C=N/N5CCN(C)CC5)c(O)c4c3C2=O)NC(=O)/C(C)=C\C=C\[C@H](C)[C@H](O)[C@@H](C)[C@@H](O)[C@@H](C)[C@H](OC(C)=O)[C@@H]1C [Rifampicin]
IC50 [14]: > 100 µg/mL

NC(=O)OC[C@H](O)[C@@H](O)[C@H](N)C(=O)N[C@H](C(=O)O)[C@H]1O[C@@H](n2cc(C(=O)O)c(=O)[nH]c2=O)[C@H](O)[C@@H]1O [Polyoxin D, polyoxin D]
IC50 [2]: 50.8 µM | IC50 [4, 20]: > 100 µM | IC50 [5, 21]: 55 µM | M. tuberculosis (H37Rv) MIC [7]: >50.0 µg/mL | Vero cell cytotoxicity IC50 [8]: >100 µg/mL | Growth inhibition of M. smegmatis and M. tuberculosis [15]: did not inhibit growth | M. smegmatis (ATCC607) MIC [9]: >50.0 µg/mL

B1: MurG of M. smegmatis (Mycolicibacterium smegmatis MC2 155) (protein)
chain: T1 sequence (A0R016 1-385)
Km ([19]; 2e-C55 37.5 μM): 36 ± 10^b μM | Km ([19]; 2e-C55 75.0 μM): 37 ± 3.0 µM
